Measurements taken from article PMC12118597 (Science Advances, 2025).
Several values for one entry are separate records, joined by “and”; a condition that tells them apart may be missing. Identical values can stand only once. Like-named read-outs stand apart in the source and are kept apart here.

Molecular target: SARS-CoV-2 NSP3 macrodomain (Mac1) (Severe acute respiratory syndrome coronavirus 2, UniProt P0DTD1)
Format: binding
[1] = DMSO background map; event 1; soak concentration 10 mM
[2] = DMSO background map; soak concentration 10 mM
[3] = PanDDA background density correction factor
[4] = TRUE = ligand-bound crystal structure obtained (PDB code given)
[5] = crystal soak concentration 20 mM, DMSO background map
[6] = crystal soak concentration 20 mM, DMSO background map, event 1
[7] = crystal soak concentration 20 mM, P43 crystals
[8] = crystal soak, P43 crystals; soak concentration 10 mM
[9] = crystal soak, P43 crystals; soak concentration 10 mM for the hits shown
[10] = ligand conformations modeled in the crystal structure
[11] = refined crystallographic occupancy
[12] = site of Mac1 occupied in the X-ray crystal structure (Adenosine or Distal)
[13] = PanDDA background density correction, 1-BDC
[14] = soak concentration 10 mM, DMSO background map
[15] = soak concentration 10 mM, P43 crystals
[16] = soak concentration 3 mM, DMSO background map
[17] = soak concentration 3 mM, P43 crystals
[18] = crystal soak 10 mM, P43 crystal form
[19] = crystal soak 10 mM; DMSO background map

Structure (SMILES) | Occupancy difference (refined_occupancy - 2*(1-BDC)) | PanDDA run, DMSO background map: 1-BDC [1] | PanDDA run, DMSO background map: Hit [2] | 1-BDC [3] | X-ray crystal structure [4] | Hit (PanDDA run, DMSO background map) [5] | 1-BDC (PanDDA run, DMSO background map) [6] | Hit (PanDDA run, overall) [7] | Modeling comment (PanDDA run, overall) [7] | PanDDA run, overall: Hit [9] | Total number of conformations [10] | 2*(1-BDC) (%) (occupancy estimate from PanDDA) | Refined ligand occupancy (%) [11] [%] | Binding site [12] | PanDDA run, DMSO background map: 1-BDC [14] | PanDDA run, DMSO background map: Hit [14] | PanDDA run, overall: Hit [15] | other results
O=C(O)C1CCCN1S(=O)(=O)c1cccc2nsnc12 (stereo not drawn) [AVI-2] | 10 | 0.2 | TRUE | 0.2 | TRUE | TRUE | 0.22 | TRUE | Duplicate, not modeled | TRUE | 1 | 40 | 50 | Adenosine |  |  |  | PanDDA run, DMSO background map: Modeled [2]: TRUE; PanDDA run, overall: Modeled [8]: TRUE
c1ccc(-n2nnnc2CSc2nnc(NC3CC3)s2)cc1 [AVI-286] | 0 | 0.11 | TRUE | 0.11 | TRUE |  |  |  |  | TRUE | 1 | 22 | 22 | Distal |  |  |  | PanDDA run, DMSO background map: Modeled [2]: TRUE; PanDDA run, overall: Modeled [8]: TRUE
O=C(O)C(c1ccccc1)n1sc2ccccc2c1=O (stereo not drawn) [AVI-288] |  | 0.26 | TRUE |  | TRUE | TRUE | 0.37 | TRUE |  | TRUE |  | 74 |  | Adenosine |  |  |  | 1-BDC [13]: 0.37; Modeled (PanDDA run, DMSO background map) [5]: TRUE; Modeled (PanDDA run, overall) [7]: TRUE; PanDDA run, overall: Modeling comment [8]: Duplicate, not modeled; Refined ligand occupancy (%) (crystallographic refinement): 74%
CC(C)n1nnnc1SCc1c(C(=O)O)sc2cccc(F)c12 [AVI-291] |  | 0.25 | TRUE |  | TRUE | TRUE | 0.34 | TRUE | Second ligand conformation, not modeled, DMSO x2 | TRUE |  | 68 |  | Adenosine |  |  |  | 1-BDC [13]: 0.34; Modeled (PanDDA run, DMSO background map) [5]: TRUE; Modeled (PanDDA run, overall) [7]: TRUE; PanDDA run, overall: Modeling comment [8]: Duplicate, not modeled; Refined ligand occupancy (%) (crystallographic refinement): 68%
Nc1nnc(SCCn2c(=O)oc3ccccc32)s1 [AVI-296] | 0 | 0.06 | TRUE | 0.06 | TRUE |  |  |  |  | TRUE | 1 | 12 | 12 | Distal |  |  |  | PanDDA run, DMSO background map: Modeled [2]: TRUE; PanDDA run, overall: Modeled [8]: TRUE
CCn1c(C)nnc1Sc1cnc2ccccc2n1 [AVI-297] |  | 0.05 | TRUE |  |  |  |  |  |  | TRUE |  |  |  |  |  |  |  | PanDDA run, overall: Modeling comment [8]: Only density for quinoxaline, not modeled
CC1CC(C(=O)O)CCN1C(=O)c1ccc2c(c1)OCC(=O)N2 (stereo not drawn) [AVI-303] | 0 | 0.13 | TRUE | 0.13 | TRUE | TRUE | 0.19 | TRUE | Duplicate, not modeled | TRUE | 1 | 26 | 26 | Adenosine |  |  |  | PanDDA run, DMSO background map: Modeled [2]: TRUE; PanDDA run, overall: Modeled [8]: TRUE
COc1ccc(NC(=O)NC2CCCC2)cc1-n1nnnc1C [AVI-311] |  |  |  |  |  | TRUE | 0.12 | TRUE | Weak density, not modeled |  |  |  |  |  | 0.09 | TRUE | TRUE | PanDDA run, overall: Modeling comment [15]: Weak density, not modeled
O=C(Nc1ccsc1C(=O)O)c1ccc2c(c1)OCO2 [AVI-316] | 0 |  |  | 0.07 | TRUE | TRUE | 0.12 | TRUE | Duplicate, not modeled |  | 1 | 14 | 14 | Adenosine | 0.07 | TRUE | TRUE | PanDDA run, DMSO background map: Modeled [14]: TRUE; PanDDA run, overall: Modeled [15]: TRUE
Cc1sc2ncnc(Sc3ccccc3C(=O)O)c2c1C [AVI-317] | 30 |  |  | 0.15 | TRUE |  |  |  |  |  | 2 | 30 | 60 | Adenosine | 0.17 and 0.15 | TRUE | TRUE | PanDDA run, DMSO background map: Modeled [14]: TRUE; PanDDA run, overall: Modeled [15]: TRUE; PanDDA run, overall: Modeling comment [15]: Duplicate, not modeled
Cc1c(C)n(Cc2ccccc2)c2ncnc(N)c12 [AVI-321] | 0 |  |  | 0.08 | TRUE |  |  |  |  |  | 1 | 16 | 16 | Adenosine |  |  |  | PanDDA run, DMSO background map: 1-BDC [16]: 0.08; PanDDA run, DMSO background map: Hit [16]: TRUE; PanDDA run, DMSO background map: Modeled [16]: TRUE; PanDDA run, overall: Hit [17]: TRUE; PanDDA run, overall: Modeled [17]: TRUE
Cc1cc2c(=O)n(CCN3C(=O)c4ccccc4S3(=O)=O)nnc2s1 [AVI-341] | 14 |  |  | 0.18 | TRUE | TRUE | 0.19 | TRUE | Duplicate, not modeled |  | 1 | 36 | 50 | Adenosine | 0.18 | TRUE | TRUE | PanDDA run, DMSO background map: Modeled [14]: TRUE; PanDDA run, overall: Modeled [15]: TRUE
CNc1ccc(NS(=O)(=O)c2cc3cccc(C)c3s2)cn1 [AVI-345] |  |  |  |  | TRUE | TRUE | 0.26 | TRUE |  |  |  | 52 |  | Adenosine | 0.17 | TRUE | TRUE | 1-BDC [13]: 0.26; Modeled (PanDDA run, DMSO background map) [5]: TRUE; Modeled (PanDDA run, overall) [7]: TRUE; Refined ligand occupancy (%) (crystallographic refinement): 52%; PanDDA run, overall: Modeling comment [15]: Duplicate, not modeled
CC1CCN(C(=O)c2ccc3c(c2)nc(CO)n3C)CC1C(=O)O (stereo not drawn) [AVI-348] | 0 |  |  | 0.25 | TRUE | TRUE | 0.34 | TRUE | Duplicate, not modeled |  | 1 | 50 | 50 | Adenosine | 0.25 | TRUE | TRUE | PanDDA run, DMSO background map: Modeled [14]: TRUE; PanDDA run, overall: Modeled [15]: TRUE
OC[C@@H]1C[C@H](F)CN1c1ncnc2[nH]ccc12 [AVI-609] | 0 |  |  | 0.17 |  |  |  |  |  |  | 1 | 34 | 34 |  |  |  |  | PanDDA run, overall: Hit [18]: TRUE; PanDDA run, DMSO background map: 1-BDC [19]: 0.17; PanDDA run, DMSO background map: Hit [19]: TRUE; X-ray crystal structure (ligand-bound crystal structure obtained (TRUE)): TRUE; Binding site (site occupied in X-ray crystal structure): Adenosine
NC(=O)C1(O)CCN(c2ncnc3[nH]ccc23)C1 (stereo not drawn) [AVI-611] | 0 |  |  | 0.22 |  |  |  |  |  |  | 2 | 44 | 44 |  |  |  |  | X-ray crystal structure (TRUE = crystal structure with ligand obtained): TRUE; PanDDA run, overall: Hit [18]: TRUE; PanDDA run, DMSO background map: 1-BDC [19]: 0.22; PanDDA run, DMSO background map: Hit [19]: TRUE; Binding site (site of Mac1 occupied in the X-ray crystal structure): Adenosine
